# From patent US20110105326A1, “Method for Enhancing the Rainfastness of Glyphosate” (BASF SE, priority 2008, published 2011)
# Tests used:
# Format in all cases: in vivo
# [1] = test system: Brachiaria decumbens (BRADE); test: herbicidal action with/without simulated rainfall after treatment, Brachiaria decumbens; design: key: % damage vs untreated control; 0 = no damage, 100 = complete destruction
# Summary of the method: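 Glyphosate alone, component B alone or their mixture sprayed at 200 l/ha on weeds at the 6–8 leaf stage. Simulated rain of 20 mm applied 15 min, 30 min, 1, 2, 3, 4 or 6 h after treatment. Damage scored 0–100% against untreated controls.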
# [2] = test system: Ipomoea grandifolia (IPOGR); test: herbicidal action with/without simulated rainfall after treatment, Ipomoea grandifolia; conditions: Example 10, flumioxazin 60 g/ha, glyphosate 1080 g/ha, 0.5% v/v Dash in Flumioxazin and mixture
# Experimental: (§1) The enhancement of the rainfastness of glyphosate was determined via the herbicidal activity of the mixture comprising glyphosate and the respective rainfastness enhancing herbicidal component B as well as of the single herbicidal components in relation to simulated rainfall at different time intervals.
# (§2) The evaluation of the damage caused by the method and the compositions the according to the present invention and the single herbicidal components was carried out using a scale from 0 to 100%, compared to the untreated control plots. Here, 0 means no damage and 100 means complete destruction of the plants of a respective weed or crop species.
# (§3) The application was performed with a fixed spayer system with air pressurization and with a tank spray volume of two liters. The speed of the spray device over the plants was adjusted for a spray volume of 200 I/ha. The spray device was a spray barr with four nozzles from the type Teejet XR 11002VS with a space of 50 cm between each nozzle.
# (§4) The application was performed at a weed stage of 6 to 8 leaves. After the application of the formulated herbicides the leaves were washed through rain of 20 mm using a fixed rain simulator system at following time interval: 15 min, 30 min, 1, 2, 3, 4 and 6 hours after treatment.
# Bidens pilosa (BIDPI) = test: herbicidal action with/without simulated rainfall after treatment, Bidens pilosa; conditions: Example 9, flumioxazin 60 g/ha, glyphosate 1080 g/ha, 0.5% v/v Dash in Flumioxazin and mixture
# Experimental: as §1, §2, §3, §4
# [3] = simulated rainfall 15 min after treatment, 1 DAA
# [4] = simulated rainfall 15 min after treatment, 2 DAA
# [5] = simulated rainfall 15 min after treatment, 3 DAA
# [6] = simulated rainfall 15 min after treatment, 7 DAA
# [7] = simulated rainfall 2 hours after treatment, 1 DAA
# [8] = simulated rainfall 2 hours after treatment, 2 DAA
# [9] = simulated rainfall 2 hours after treatment, 3 DAA
# [10] = simulated rainfall 2 hours after treatment, 7 DAA
# [11] = without simulated rainfall, 1 DAA
# [12] = without simulated rainfall, 2 DAA
# [13] = without simulated rainfall, 3 DAA
# [14] = without simulated rainfall, 7 DAA
smiles,measurement,setting,value
"C#CCN1C(=O)COc2cc(F)c(N3C(=O)C4=C(CCCC4)C3=O)cc21 [Flumioxazin, flumioxazin]",herbicidal action against BRADE,"[1]; Example 11, simulated rainfall 15 min after treatment, 1 DAA, flumioxazin 60 g/ha, glyphosate 1080 g/ha, 0.5% v/v Dash in Flumioxazin and mixture",28.33%
same,herbicidal action against BRADE,"[1]; Example 11, simulated rainfall 15 min after treatment, 2 DAA, flumioxazin 60 g/ha, glyphosate 1080 g/ha, 0.5% v/v Dash in Flumioxazin and mixture",64.66%
same,herbicidal action against BRADE,"[1]; Example 11, simulated rainfall 15 min after treatment, 3 DAA, flumioxazin 60 g/ha, glyphosate 1080 g/ha, 0.5% v/v Dash in Flumioxazin and mixture",80%
same,herbicidal action against BRADE,"[1]; Example 11, simulated rainfall 15 min after treatment, 7 DAA, flumioxazin 60 g/ha, glyphosate 1080 g/ha, 0.5% v/v Dash in Flumioxazin and mixture",82.33%
same,herbicidal action against BRADE,"[1]; Example 11, simulated rainfall 30 min after treatment, 1 DAA, flumioxazin 60 g/ha, glyphosate 1080 g/ha, 0.5% v/v Dash in Flumioxazin and mixture",22.33%
same,herbicidal action against BRADE,"[1]; Example 11, simulated rainfall 30 min after treatment, 2 DAA, flumioxazin 60 g/ha, glyphosate 1080 g/ha, 0.5% v/v Dash in Flumioxazin and mixture",53.66%
same,herbicidal action against BRADE,"[1]; Example 11, simulated rainfall 30 min after treatment, 3 DAA, flumioxazin 60 g/ha, glyphosate 1080 g/ha, 0.5% v/v Dash in Flumioxazin and mixture",76%
same,herbicidal action against BRADE,"[1]; Example 11, simulated rainfall 30 min after treatment, 7 DAA, flumioxazin 60 g/ha, glyphosate 1080 g/ha, 0.5% v/v Dash in Flumioxazin and mixture",76.66%
same,herbicidal action against BRADE,"[1]; Example 11, without simulated rainfall, 1 DAA, flumioxazin 60 g/ha, glyphosate 1080 g/ha, 0.5% v/v Dash in Flumioxazin and mixture",14.66%
same,herbicidal action against BRADE,"[1]; Example 11, without simulated rainfall, 2 DAA, flumioxazin 60 g/ha, glyphosate 1080 g/ha, 0.5% v/v Dash in Flumioxazin and mixture",41%
same,herbicidal action against BRADE,"[1]; Example 11, without simulated rainfall, 3 DAA, flumioxazin 60 g/ha, glyphosate 1080 g/ha, 0.5% v/v Dash in Flumioxazin and mixture",42.66%
same,herbicidal action against BRADE,"[1]; Example 11, without simulated rainfall, 7 DAA, flumioxazin 60 g/ha, glyphosate 1080 g/ha, 0.5% v/v Dash in Flumioxazin and mixture",51%
same,herbicidal action against BRADE,"[1]; simulated rainfall 2 hours after treatment, 1 DAA, Example 11.4",16.33
same,herbicidal action against BRADE,"[1]; simulated rainfall 2 hours after treatment, 2 DAA, Example 11.4",50.66
same,herbicidal action against BRADE,"[1]; simulated rainfall 2 hours after treatment, 3 DAA, Example 11.4",65
same,herbicidal action against BRADE,"[1]; simulated rainfall 2 hours after treatment, 7 DAA, Example 11.4",80
same,herbicidal action against BRADE,"[1]; simulated rainfall 6 hours after treatment, 1 DAA, Example 11.5",21.66
same,herbicidal action against BRADE,"[1]; simulated rainfall 6 hours after treatment, 2 DAA, Example 11.5",44.33
same,herbicidal action against BRADE,"[1]; simulated rainfall 6 hours after treatment, 3 DAA, Example 11.5",63.33
same,herbicidal action against BRADE,"[1]; simulated rainfall 6 hours after treatment, 7 DAA, Example 11.5",65
same,herbicidal action against IPOGR,[2]; [3],20.33%
same,herbicidal action against IPOGR,[2]; [4],75%
same,herbicidal action against IPOGR,[2]; [5],82.33%
same,herbicidal action against IPOGR,[2]; [6],98.33%
same,herbicidal action against IPOGR,"[2]; simulated rainfall 15 min after treatment, 14 DAA",90%
same,herbicidal action against IPOGR,[2]; [7],24.66%
same,herbicidal action against IPOGR,[2]; [8],80%
same,herbicidal action against IPOGR,[2]; [9],94.33%
same,herbicidal action against IPOGR,[2]; [10],99.66%
same,herbicidal action against IPOGR,"[2]; simulated rainfall 2 hours after treatment, 14 DAA",100%
same,herbicidal action against IPOGR,[2]; [11],19.33%
same,herbicidal action against IPOGR,[2]; [12],93.66%
same,herbicidal action against IPOGR,[2]; [13],98%
same,herbicidal action against IPOGR,[2]; [14],98.66%
same,herbicidal action against IPOGR,"[2]; without simulated rainfall, 14 DAA",97.66%
same,herbicidal action against BIDPI,Bidens pilosa (BIDPI); [3],51%
same,herbicidal action against BIDPI,Bidens pilosa (BIDPI); [4],59.66%
same,herbicidal action against BIDPI,Bidens pilosa (BIDPI); [5],64%
same,herbicidal action against BIDPI,Bidens pilosa (BIDPI); [6],69%
same,herbicidal action against BIDPI,"Bidens pilosa (BIDPI); simulated rainfall 30 min after treatment, 1 DAA",63.66%
same,herbicidal action against BIDPI,"Bidens pilosa (BIDPI); simulated rainfall 30 min after treatment, 2 DAA",63%
same,herbicidal action against BIDPI,"Bidens pilosa (BIDPI); simulated rainfall 30 min after treatment, 3 DAA",82%
same,herbicidal action against BIDPI,"Bidens pilosa (BIDPI); simulated rainfall 30 min after treatment, 7 DAA",78.33%
same,herbicidal action against BIDPI,Bidens pilosa (BIDPI); [7],72.33%
same,herbicidal action against BIDPI,Bidens pilosa (BIDPI); [8],86.66%
same,herbicidal action against BIDPI,Bidens pilosa (BIDPI); [9],91.66%
same,herbicidal action against BIDPI,Bidens pilosa (BIDPI); [10],96.66%
same,herbicidal action against BIDPI,"Bidens pilosa (BIDPI); simulated rainfall 6 hours after treatment, 1 DAA",66.66%
same,herbicidal action against BIDPI,"Bidens pilosa (BIDPI); simulated rainfall 6 hours after treatment, 2 DAA",84%
same,herbicidal action against BIDPI,"Bidens pilosa (BIDPI); simulated rainfall 6 hours after treatment, 3 DAA",91.33%
same,herbicidal action against BIDPI,"Bidens pilosa (BIDPI); simulated rainfall 6 hours after treatment, 7 DAA",92.66%
same,herbicidal action against BIDPI,Bidens pilosa (BIDPI); [11],80%
same,herbicidal action against BIDPI,Bidens pilosa (BIDPI); [12],92%
same,herbicidal action against BIDPI,Bidens pilosa (BIDPI); [13],98%
same,herbicidal action against BIDPI,Bidens pilosa (BIDPI); [14],98.66%
